Measured values from BigSolDB 2.1.

## OC[C@H]1O[C@@H](Oc2c(O)cc(O)cc2/C=C/c2ccc(O)cc2)[C@H](O)[C@@H](O)[C@@H]1O
In DMF, 278.15 K
  solubility (mole fraction): 0.0145
In DMF, 283.15 K
  solubility (mole fraction): 0.0175
In DMF, 288.15 K
  solubility (mole fraction): 0.0214
In DMF, 293.15 K
  solubility (mole fraction): 0.0255
In DMF, 298.15 K
  solubility (mole fraction): 0.0311
In DMF, 303.15 K
  solubility (mole fraction): 0.0369
In DMF, 308.15 K
  solubility (mole fraction): 0.0442
In DMF, 313.15 K
  solubility (mole fraction): 0.0522
In DMF, 318.15 K
  solubility (mole fraction): 0.0614
In THF, 278.15 K
  solubility (mole fraction): 0.0128
In THF, 283.15 K
  solubility (mole fraction): 0.0157
In THF, 288.15 K
  solubility (mole fraction): 0.0191
In THF, 293.15 K
  solubility (mole fraction): 0.0231
In THF, 298.15 K
  solubility (mole fraction): 0.0277
In THF, 303.15 K
  solubility (mole fraction): 0.0331
In THF, 308.15 K
  solubility (mole fraction): 0.0393
In THF, 313.15 K
  solubility (mole fraction): 0.0464
In THF, 318.15 K
  solubility (mole fraction): 0.0545
In acetone, 278.15 K
  solubility (mole fraction): 0.0121
In acetone, 283.15 K
  solubility (mole fraction): 0.0149
In acetone, 288.15 K
  solubility (mole fraction): 0.0181
In acetone, 293.15 K
  solubility (mole fraction): 0.0219
In acetone, 298.15 K
  solubility (mole fraction): 0.0264
In acetone, 303.15 K
  solubility (mole fraction): 0.0315
In acetone, 308.15 K
  solubility (mole fraction): 0.0365
In acetone, 313.15 K
  solubility (mole fraction): 0.0443
In acetone, 318.15 K
  solubility (mole fraction): 0.052
In acetonitrile, 278.15 K
  solubility (mole fraction): 0.00281
In acetonitrile, 283.15 K
  solubility (mole fraction): 0.00349
In acetonitrile, 288.15 K
  solubility (mole fraction): 0.0043
In acetonitrile, 293.15 K
  solubility (mole fraction): 0.00526
In acetonitrile, 298.15 K
  solubility (mole fraction): 0.00639
In acetonitrile, 303.15 K
  solubility (mole fraction): 0.00772
In acetonitrile, 308.15 K
  solubility (mole fraction): 0.00927
In acetonitrile, 313.15 K
  solubility (mole fraction): 0.0111
In acetonitrile, 318.15 K
  solubility (mole fraction): 0.0131
In ethanol, 278.15 K
  solubility (mole fraction): 0.00757
In ethanol, 283.15 K
  solubility (mole fraction): 0.00881
In ethanol, 288.15 K
  solubility (mole fraction): 0.0108
In ethanol, 293.15 K
  solubility (mole fraction): 0.0136
In ethanol, 298.15 K
  solubility (mole fraction): 0.0159
In ethanol, 303.15 K
  solubility (mole fraction): 0.0199
In ethanol, 308.15 K
  solubility (mole fraction): 0.0232
In ethanol, 313.15 K
  solubility (mole fraction): 0.0281
In ethanol, 318.15 K
  solubility (mole fraction): 0.0326
In ethyl acetate, 278.15 K
  solubility (mole fraction): 0.00441
In ethyl acetate, 283.15 K
  solubility (mole fraction): 0.00543
In ethyl acetate, 288.15 K
  solubility (mole fraction): 0.00665
In ethyl acetate, 293.15 K
  solubility (mole fraction): 0.00828
In ethyl acetate, 298.15 K
  solubility (mole fraction): 0.00987
In ethyl acetate, 303.15 K
  solubility (mole fraction): 0.0118
In ethyl acetate, 308.15 K
  solubility (mole fraction): 0.0139
In ethyl acetate, 313.15 K
  solubility (mole fraction): 0.0165
In ethyl acetate, 318.15 K
  solubility (mole fraction): 0.0192
In isopropanol, 278.15 K
  solubility (mole fraction): 0.00535
In isopropanol, 283.15 K
  solubility (mole fraction): 0.00652
In isopropanol, 288.15 K
  solubility (mole fraction): 0.00838
In isopropanol, 293.15 K
  solubility (mole fraction): 0.01
In isopropanol, 298.15 K
  solubility (mole fraction): 0.0122
In isopropanol, 303.15 K
  solubility (mole fraction): 0.0146
In isopropanol, 308.15 K
  solubility (mole fraction): 0.0174
In isopropanol, 313.15 K
  solubility (mole fraction): 0.0205
In isopropanol, 318.15 K
  solubility (mole fraction): 0.0238
In methanol, 278.15 K
  solubility (mole fraction): 0.00794
In methanol, 283.15 K
  solubility (mole fraction): 0.00978
In methanol, 288.15 K
  solubility (mole fraction): 0.0121
In methanol, 293.15 K
  solubility (mole fraction): 0.0149
In methanol, 298.15 K
  solubility (mole fraction): 0.0181
In methanol, 303.15 K
  solubility (mole fraction): 0.0215
In methanol, 308.15 K
  solubility (mole fraction): 0.0261
In methanol, 313.15 K
  solubility (mole fraction): 0.0316
In methanol, 318.15 K
  solubility (mole fraction): 0.0377
In n-propanol, 278.15 K
  solubility (mole fraction): 0.00601
In n-propanol, 283.15 K
  solubility (mole fraction): 0.0078
In n-propanol, 288.15 K
  solubility (mole fraction): 0.00977
In n-propanol, 293.15 K
  solubility (mole fraction): 0.012
In n-propanol, 298.15 K
  solubility (mole fraction): 0.014
In n-propanol, 303.15 K
  solubility (mole fraction): 0.0166
In n-propanol, 308.15 K
  solubility (mole fraction): 0.0196
In n-propanol, 313.15 K
  solubility (mole fraction): 0.0228
In n-propanol, 318.15 K
  solubility (mole fraction): 0.0269
